Data: patent US9630955B2, “Chemical compound useful as intermediate for preparing a catechol-O-methyltransferase inhibitor” (BIAL—Portela & Cª., S.A, priority 2011, dated 2017)
Like-named read-outs stand apart in the source and are kept apart here.

Assays:
[1] = molecular target: T1, liver COMT (Rattus norvegicus, UniProt P22734); assay: inhibition of liver COMT post oral administration to rats; format: in vivo; details: for ED50: rat, po
T1 construct: from tissue; host or cells: rat liver
T1 sequence (P22734 1-264): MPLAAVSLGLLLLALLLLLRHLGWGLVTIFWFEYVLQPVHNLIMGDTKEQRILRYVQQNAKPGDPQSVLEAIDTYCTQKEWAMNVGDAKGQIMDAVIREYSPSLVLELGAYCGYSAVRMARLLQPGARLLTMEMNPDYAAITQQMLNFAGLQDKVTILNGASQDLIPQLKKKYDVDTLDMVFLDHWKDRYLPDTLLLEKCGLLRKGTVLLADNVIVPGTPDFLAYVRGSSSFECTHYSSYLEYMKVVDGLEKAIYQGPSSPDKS

[2] = molecular target: T2, human recombinant S-COMT (Homo sapiens, UniProt P21964)
T2 sequence (P21964 1-221 isoform P21964-2): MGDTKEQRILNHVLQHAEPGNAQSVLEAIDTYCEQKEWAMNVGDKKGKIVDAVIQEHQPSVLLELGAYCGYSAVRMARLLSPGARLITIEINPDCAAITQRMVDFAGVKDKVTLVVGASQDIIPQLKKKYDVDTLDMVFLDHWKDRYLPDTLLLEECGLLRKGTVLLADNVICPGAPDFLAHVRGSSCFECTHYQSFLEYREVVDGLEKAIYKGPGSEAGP

[3] = molecular target: T3, COMT in the brain (Rattus norvegicus, UniProt P22734); assay: inhibition of COMT in the brain following oral administration to the rat; format: in vivo; details: over a period of 8 hours post administration
T3 construct: from tissue; host or cells: rat brain
T3 sequence (P22734 1-264): T1 sequence (P22734 1-264)

SMILES: Cc1ccc(C(=O)c2cc(O)c(O)c([N+](=O)[O-])c2)cc1 [tolcapone]
- enzyme activity recovery (rat liver COMT) ([1]; oral administration, after 9 hours): about 84%
- ED50 ([1]; read-out: ED50 inhibiting liver COMT, rats, oral administration, at 3 hours post administration): 1.28 mg/kg
- ED50 ([1]; read-out: ED50 inhibiting liver COMT, rats, oral administration, at 6 hours post administration): 2.08 mg/kg
- inhibition of human recombinant S-COMT (in words) [2]: inhibit
- enzyme activity inhibited (COMT in the brain) [3]: about 50%
